In ChEMBL document CHEMBL3885861, “Open TG-GATES”:

Species on record: Rattus norvegicus
Assay: Open TG-GATES - Regimen: Single
Assay type: toxicity, organism-based, Sprague-Dawley
Set-up: regimen Single, gender Male, age 6 weeks
Conditions: in vivo, po, route gavage; for gamma-GTP / ALP / ALT / AST / BUN / CRE / DBIL / GLC / IP / K / Na / PL / RALB / TBIL / TC / TG / TP / LDH / Ca: tissue Plasma; for APTT / Bas / Eos / Fbg / Hb / Ht / Lym / MCH / MCHC / MCV / Mono / Neu / PT / Plat / RBC / Ret / WBC: tissue Blood; for KIDNEY_L / KIDNEY_R / KIDNEY_TOTAL: tissue Kidney; for LIVER: tissue Liver
[1] = 300 mg/kg, 3 h, dose level Middle
[2] = 300 mg/kg, 6 h, dose level Middle
[3] = 300 mg/kg, 9 h, dose level Middle
[4] = 300 mg/kg, 24 h, dose level Middle
[5] = 1000 mg/kg, 3 h, dose level High
[6] = 1000 mg/kg, 6 h, dose level High
[7] = 1000 mg/kg, 9 h, dose level High
[8] = 1000 mg/kg, 24 h, dose level High

## C[C@H](CS)C(=O)N1CCC[C@H]1C(=O)O [CAPTOPRIL]
100 mg/kg, 24 h, dose level Low
  gamma-GTP: 1 IU/L
[1]
  TERMINAL_BW: 224.2 g
  APTT: 16.3 s
  Bas: 0%
  Eos: 0.8%
  Fbg: 204.8 mg/dL
  Hb: 13.2 g/dL
  Ht: 39.8%
  Lym: 83.6%
  MCH: 21.3 pg
  MCHC: 33.2%
  MCV: 64.1 fL
  Mono: 5%
  Neu: 10%
  PT: 11.6 s
  Plat: 117.4 x10_4/uL
  RBC: 620.8 x10_4/ul
  Ret: 6.6%
  WBC: 125.4 x10_2/uL
  KIDNEY_L: 1 g
  KIDNEY_R: 1 g
  KIDNEY_TOTAL: 2 g
  LIVER: 11.2 g
  ALP: 845.8 IU/L
  ALT: 33.4 IU/L
  AST: 61.8 IU/L
  BUN: 17 mg/dL
  CRE: 0.4 mg/dL
  DBIL: 0.006 mg/dL
  GLC: 209.4 mg/dL
  IP: 9.3 mg/dL
  K: 5 meq/L
  Na: 138 meq/L
  PL: 130 mg/dL
  RALB: 3.7 g/dL
  TBIL: 0.4 mg/dL
  TC: 70.8 mg/dL
  TG: 68.6 mg/dL
  TP: 5.4 g/dL
  gamma-GTP: 1.4 IU/L
[2]
  TERMINAL_BW: 221.9 g
  APTT: 16.4 s
  Bas: 0%
  Eos: 1.2%
  Hb: 12.9 g/dL
  Ht: 39%
  Lym: 80%
  MCH: 21 pg
  MCHC: 33%
  MCV: 63.5 fL
  Mono: 6.6%
  Neu: 12.2%
  PT: 12.1 s
  Plat: 116.7 x10_4/uL
  RBC: 615 x10_4/ul
  Ret: 8.2%
  WBC: 113.8 x10_2/uL
  KIDNEY_L: 1 g
  KIDNEY_R: 1 g
  KIDNEY_TOTAL: 2 g
  ALP: 734.8 IU/L
  ALT: 32 IU/L
  AST: 55 IU/L
  BUN: 21.8 mg/dL
  CRE: 0.6 mg/dL
  DBIL: 0.026 mg/dL
  GLC: 197.4 mg/dL
  K: 4.8 meq/L
  LDH: 92.4 IU/L
  Na: 139 meq/L
  PL: 133.6 mg/dL
  RALB: 3.5 g/dL
  TBIL: 0.5 mg/dL
  TC: 73.6 mg/dL
  TG: 50.4 mg/dL
  TP: 5.1 g/dL
  gamma-GTP: 2 IU/L
[3]
  TERMINAL_BW: 222.6 g
  APTT: 15.9 s
  Bas: 0%
  Eos: 0.8%
  Fbg: 204 mg/dL
  Hb: 13 g/dL
  Ht: 39.5%
  Lym: 79.2%
  MCH: 21.4 pg
  MCHC: 32.8%
  MCV: 65.4 fL
  Mono: 4.8%
  Neu: 15.2%
  PT: 12.3 s
  RBC: 604.2 x10_4/ul
  Ret: 8.6%
  KIDNEY_L: 1 g
  KIDNEY_R: 1 g
  KIDNEY_TOTAL: 2 g
  LIVER: 9.4 g
  ALP: 667 IU/L
  ALT: 35.4 IU/L
  AST: 55.8 IU/L
  BUN: 16.8 mg/dL
  CRE: 0.4 mg/dL
  DBIL: 0.078 mg/dL
  GLC: 208.6 mg/dL
  K: 5 meq/L
  LDH: 72.6 IU/L
  Na: 139.6 meq/L
  PL: 139.6 mg/dL
  RALB: 3.7 g/dL
  TBIL: 0.3 mg/dL
  TC: 78.8 mg/dL
  TG: 49 mg/dL
  TP: 5.3 g/dL
  gamma-GTP: 2 IU/L
[4]
  TERMINAL_BW: 235.1 g
  APTT: 16.5 s
  Bas: 0%
  Eos: 0.8%
  Hb: 13.2 g/dL
  Ht: 39.8%
  Lym: 83.4%
  MCH: 21.5 pg
  MCHC: 33.2%
  MCV: 64.8 fL
  Mono: 5.2%
  Neu: 10%
  PT: 11.4 s
  Plat: 118.6 x10_4/uL
  RBC: 613.8 x10_4/ul
  Ret: 8.6%
  KIDNEY_L: 1 g
  KIDNEY_R: 1 g
  KIDNEY_TOTAL: 2.1 g
  LIVER: 11.6 g
  ALT: 37.6 IU/L
  AST: 64.8 IU/L
  BUN: 17.4 mg/dL
  CRE: 0.6 mg/dL
  Ca: 11.3 mg/dL
  DBIL: 0.02 mg/dL
  GLC: 189.6 mg/dL
  IP: 8.5 mg/dL
  K: 4.9 meq/L
  LDH: 115.6 IU/L
  Na: 138.8 meq/L
  PL: 150.6 mg/dL
  RALB: 4.1 g/dL
  TBIL: 0.3 mg/dL
  TC: 79.2 mg/dL
  TG: 86 mg/dL
  TP: 5.9 g/dL
  gamma-GTP: 0.6 IU/L
[5]
  TERMINAL_BW: 222.3 g
  APTT: 16 s
  Bas: 0%
  Eos: 1%
  Fbg: 204.8 mg/dL
  Hb: 13.6 g/dL
  Ht: 40.9%
  Lym: 76.8%
  MCH: 21.8 pg
  MCHC: 33.1%
  MCV: 65.9 fL
  Mono: 5.6%
  Neu: 16.4%
  PT: 12.1 s
  Plat: 118.1 x10_4/uL
  RBC: 621.6 x10_4/ul
  Ret: 8.4%
  KIDNEY_L: 1 g
  KIDNEY_R: 1 g
  KIDNEY_TOTAL: 2.1 g
  ALP: 661.2 IU/L
  ALT: 37 IU/L
  AST: 61 IU/L
  BUN: 17.4 mg/dL
  CRE: 0.5 mg/dL
  DBIL: 0.006 mg/dL
  GLC: 213 mg/dL
  IP: 9.8 mg/dL
  K: 5 meq/L
  Na: 137.8 meq/L
  PL: 133.6 mg/dL
  RALB: 3.5 g/dL
  TBIL: 0.5 mg/dL
  TC: 79.4 mg/dL
  TG: 53.8 mg/dL
  TP: 5.5 g/dL
  gamma-GTP: 1.4 IU/L
[6]
  TERMINAL_BW: 215.6 g
  APTT: 16.5 s
  Bas: 0%
  Eos: 1%
  Fbg: 205.6 mg/dL
  Hb: 13.4 g/dL
  Ht: 40.4%
  Lym: 79.6%
  MCH: 21.1 pg
  MCHC: 33.1%
  MCV: 63.9 fL
  Mono: 5.2%
  Neu: 14%
  PT: 12.6 s
  RBC: 632.8 x10_4/ul
  Ret: 8.2%
  WBC: 110.9 x10_2/uL
  KIDNEY_L: 1 g
  KIDNEY_R: 1 g
  KIDNEY_TOTAL: 2 g
  LIVER: 9.6 g
  ALP: 736.6 IU/L
  ALT: 32.8 IU/L
  AST: 57.6 IU/L
  BUN: 21.2 mg/dL
  CRE: 0.6 mg/dL
  DBIL: 0.02 mg/dL
  GLC: 211.4 mg/dL
  IP: 9.8 mg/dL
  K: 4.7 meq/L
  LDH: 110.4 IU/L
  Na: 139.6 meq/L
  PL: 112.8 mg/dL
  RALB: 3.6 g/dL
  TBIL: 0.5 mg/dL
  TC: 62.6 mg/dL
  TG: 48.4 mg/dL
  TP: 5.4 g/dL
  gamma-GTP: 1.6 IU/L
[7]
  TERMINAL_BW: 220.7 g
  APTT: 16.6 s
  Bas: 0%
  Eos: 1%
  Fbg: 201.2 mg/dL
  Hb: 12.7 g/dL
  Ht: 38.9%
  Lym: 77.6%
  MCH: 20.8 pg
  MCHC: 32.7%
  MCV: 63.4 fL
  Mono: 4.8%
  Neu: 16.6%
  PT: 12.4 s
  Plat: 113.6 x10_4/uL
  RBC: 613.4 x10_4/ul
  Ret: 8.7%
  KIDNEY_L: 1 g
  KIDNEY_R: 1 g
  KIDNEY_TOTAL: 2 g
  LIVER: 9.1 g
  ALP: 691.6 IU/L
  ALT: 36 IU/L
  AST: 59.4 IU/L
  BUN: 24.4 mg/dL
  CRE: 0.4 mg/dL
  DBIL: 0.08 mg/dL
  GLC: 192.2 mg/dL
  IP: 11 mg/dL
  K: 5.3 meq/L
  LDH: 76 IU/L
  Na: 140 meq/L
  PL: 118.2 mg/dL
  RALB: 3.4 g/dL
  TBIL: 0.5 mg/dL
  TC: 68.4 mg/dL
  TG: 27.4 mg/dL
  TP: 5.1 g/dL
  gamma-GTP: 1.8 IU/L
[8]
  TERMINAL_BW: 237.2 g
  APTT: 16.4 s
  Bas: 0%
  Eos: 1%
  Hb: 12.8 g/dL
  Ht: 38.5%
  Lym: 79%
  MCH: 21.7 pg
  MCHC: 33.2%
  MCV: 65.3 fL
  Mono: 5.2%
  Neu: 14.8%
  PT: 11.3 s
  Plat: 110.3 x10_4/uL
  RBC: 589.4 x10_4/ul
  Ret: 8.4%
  WBC: 95.8 x10_2/uL
  KIDNEY_L: 1.1 g
  KIDNEY_R: 1.1 g
  KIDNEY_TOTAL: 2.1 g
  LIVER: 11.8 g
  ALP: 971.2 IU/L
  ALT: 39.8 IU/L
  AST: 66.4 IU/L
  BUN: 16.8 mg/dL
  CRE: 0.6 mg/dL
  Ca: 11.1 mg/dL
  DBIL: 0.058 mg/dL
  GLC: 200.4 mg/dL
  IP: 8.6 mg/dL
  K: 4.5 meq/L
  LDH: 100.4 IU/L
  Na: 137.8 meq/L
  PL: 142 mg/dL
  RALB: 3.9 g/dL
  TBIL: 0.3 mg/dL
  TC: 81.4 mg/dL
  TP: 5.7 g/dL
  gamma-GTP: 1.2 IU/L
